Read-outs that look alike come from different tables or passages of the source.
What was measured:
BRM = target: T1, BRM (Homo sapiens, UniProt P51531); assay: ATPase catalytic activity of BRM, ADP-Glo in vitro biochemical assay; conditions: 30 nM BRM, 400 μM ATP
T1 construct: made in house; host or cells: High Five insect cells

BRG-1 = target: T2, BRG-1 (Homo sapiens, UniProt P51532); assay: ATPase catalytic activity of BRG-1, ADP-Glo in vitro biochemical assay; conditions: 30 nM BRG-1, 400 μM ATP
T2 construct: made in house; host or cells: High Five insect cells

[1] = ATPase catalytic activity, read-out: BRM IP50
[2] = ATPase catalytic activity, read-out: BRG1 IP50
[3] = ATPase catalytic activity, read-out: BRM IP50 (μM)*
[4] = ATPase catalytic activity, read-out: BRG1 IP50 (μM)*

T2 sequence (P51532 whole entry): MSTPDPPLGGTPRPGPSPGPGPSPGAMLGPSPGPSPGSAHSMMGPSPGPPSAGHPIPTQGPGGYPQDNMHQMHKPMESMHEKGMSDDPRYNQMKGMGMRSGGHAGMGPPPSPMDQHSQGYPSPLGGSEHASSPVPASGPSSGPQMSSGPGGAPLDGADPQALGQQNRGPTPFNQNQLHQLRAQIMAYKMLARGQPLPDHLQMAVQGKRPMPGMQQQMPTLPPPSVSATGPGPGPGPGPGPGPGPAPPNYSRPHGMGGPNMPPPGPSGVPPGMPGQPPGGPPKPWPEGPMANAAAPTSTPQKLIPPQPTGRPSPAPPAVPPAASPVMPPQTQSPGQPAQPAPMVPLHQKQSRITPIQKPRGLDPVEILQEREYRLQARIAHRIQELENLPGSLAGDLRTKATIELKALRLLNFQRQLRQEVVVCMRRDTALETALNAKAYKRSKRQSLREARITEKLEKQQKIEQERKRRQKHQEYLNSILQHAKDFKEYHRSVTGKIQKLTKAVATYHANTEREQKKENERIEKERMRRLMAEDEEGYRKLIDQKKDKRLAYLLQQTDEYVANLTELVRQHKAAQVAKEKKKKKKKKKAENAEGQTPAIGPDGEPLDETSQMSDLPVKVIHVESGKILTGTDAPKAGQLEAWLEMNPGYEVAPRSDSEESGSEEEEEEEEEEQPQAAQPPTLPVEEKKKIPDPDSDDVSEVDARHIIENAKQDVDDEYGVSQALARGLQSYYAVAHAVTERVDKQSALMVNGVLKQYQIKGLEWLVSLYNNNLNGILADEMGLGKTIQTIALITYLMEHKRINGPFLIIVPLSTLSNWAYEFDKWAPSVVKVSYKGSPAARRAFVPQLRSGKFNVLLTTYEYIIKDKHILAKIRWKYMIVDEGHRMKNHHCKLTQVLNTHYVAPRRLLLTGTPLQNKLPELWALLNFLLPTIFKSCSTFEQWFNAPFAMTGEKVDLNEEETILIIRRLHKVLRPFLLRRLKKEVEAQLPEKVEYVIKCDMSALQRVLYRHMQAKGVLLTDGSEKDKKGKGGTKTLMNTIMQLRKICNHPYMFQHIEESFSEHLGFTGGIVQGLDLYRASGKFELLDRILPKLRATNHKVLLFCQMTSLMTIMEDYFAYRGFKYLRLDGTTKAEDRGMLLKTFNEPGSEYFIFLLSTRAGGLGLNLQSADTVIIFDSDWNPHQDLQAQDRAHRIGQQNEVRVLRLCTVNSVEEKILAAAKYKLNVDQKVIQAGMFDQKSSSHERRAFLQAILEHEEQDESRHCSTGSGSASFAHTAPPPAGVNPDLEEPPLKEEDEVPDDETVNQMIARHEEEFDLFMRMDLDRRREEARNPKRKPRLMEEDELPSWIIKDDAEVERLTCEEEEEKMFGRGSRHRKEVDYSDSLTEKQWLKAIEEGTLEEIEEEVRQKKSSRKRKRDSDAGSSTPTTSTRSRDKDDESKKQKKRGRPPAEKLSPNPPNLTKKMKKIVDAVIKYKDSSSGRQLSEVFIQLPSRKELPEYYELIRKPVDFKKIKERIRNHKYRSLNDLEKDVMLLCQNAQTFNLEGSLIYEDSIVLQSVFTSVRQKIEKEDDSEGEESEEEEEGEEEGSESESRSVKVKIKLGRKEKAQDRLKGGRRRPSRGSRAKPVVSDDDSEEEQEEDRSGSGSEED
T1 sequence (P51531 whole entry): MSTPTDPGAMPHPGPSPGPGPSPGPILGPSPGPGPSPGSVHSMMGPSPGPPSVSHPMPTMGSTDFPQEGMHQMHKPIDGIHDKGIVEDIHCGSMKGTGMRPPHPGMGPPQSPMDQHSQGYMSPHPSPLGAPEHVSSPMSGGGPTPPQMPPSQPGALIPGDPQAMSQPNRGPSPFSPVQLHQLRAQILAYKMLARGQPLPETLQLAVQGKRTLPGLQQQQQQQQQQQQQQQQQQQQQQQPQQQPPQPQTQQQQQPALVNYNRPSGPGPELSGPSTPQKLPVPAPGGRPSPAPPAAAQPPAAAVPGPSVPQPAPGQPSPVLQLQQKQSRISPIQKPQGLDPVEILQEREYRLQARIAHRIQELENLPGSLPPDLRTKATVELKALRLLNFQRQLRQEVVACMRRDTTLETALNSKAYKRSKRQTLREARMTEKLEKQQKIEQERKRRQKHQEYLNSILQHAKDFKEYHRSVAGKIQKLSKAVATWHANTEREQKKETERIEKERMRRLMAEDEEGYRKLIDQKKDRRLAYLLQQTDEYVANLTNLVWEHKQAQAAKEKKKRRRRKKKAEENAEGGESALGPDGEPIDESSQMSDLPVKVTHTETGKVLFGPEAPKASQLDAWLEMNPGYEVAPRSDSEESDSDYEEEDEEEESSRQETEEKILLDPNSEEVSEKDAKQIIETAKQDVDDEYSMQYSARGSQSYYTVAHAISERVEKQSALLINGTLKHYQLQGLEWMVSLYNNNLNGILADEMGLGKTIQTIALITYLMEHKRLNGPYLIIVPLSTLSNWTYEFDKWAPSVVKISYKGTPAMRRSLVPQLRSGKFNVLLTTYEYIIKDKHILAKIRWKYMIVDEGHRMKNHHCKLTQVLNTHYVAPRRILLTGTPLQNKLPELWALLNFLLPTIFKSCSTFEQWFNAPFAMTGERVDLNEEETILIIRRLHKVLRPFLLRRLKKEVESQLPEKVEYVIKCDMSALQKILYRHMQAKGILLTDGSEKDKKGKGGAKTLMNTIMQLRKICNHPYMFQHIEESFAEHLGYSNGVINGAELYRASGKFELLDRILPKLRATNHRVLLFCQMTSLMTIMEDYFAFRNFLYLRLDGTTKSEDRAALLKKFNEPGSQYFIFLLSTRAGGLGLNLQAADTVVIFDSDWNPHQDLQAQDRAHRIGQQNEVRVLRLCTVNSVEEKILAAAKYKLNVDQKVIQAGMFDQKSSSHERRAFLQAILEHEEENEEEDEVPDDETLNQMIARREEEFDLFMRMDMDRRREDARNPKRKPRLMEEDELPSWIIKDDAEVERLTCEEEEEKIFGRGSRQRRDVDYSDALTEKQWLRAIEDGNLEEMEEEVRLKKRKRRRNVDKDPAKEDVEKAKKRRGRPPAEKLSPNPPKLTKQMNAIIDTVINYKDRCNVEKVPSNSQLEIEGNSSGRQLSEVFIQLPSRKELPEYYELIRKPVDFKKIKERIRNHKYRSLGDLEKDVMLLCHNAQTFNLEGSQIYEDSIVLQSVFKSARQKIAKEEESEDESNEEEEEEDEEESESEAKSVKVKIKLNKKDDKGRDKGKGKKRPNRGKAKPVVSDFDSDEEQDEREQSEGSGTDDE

Row | IC50 (BRM; [1]) [µM] | IC50 (BRG-1; [2]) [µM] | IC50 (BRM; [3]) [µM] | IC50 (BRG-1; [4]) [µM] | SMILES | further results
1 | > 0.01 | > 0.01 |  |  | COC[C@H](NC(=O)c1ccn(C2(C#N)CC2)c1)C(=O)Nc1nc(-c2cccc(-c3ccn(C)n3)c2)cs1 [Compound 568] | 
2 | > 0.1 | > 0.1 |  |  | CN(C)[C@H]1CCN(c2cccc(-c3csc(NC(=O)CNC(=O)c4ccn(S(C)(=O)=O)c4)n3)n2)CC1(F)F [Compound 757] | 
3 | > 0.01 | > 0.01 |  |  | C[C@@H]1CN(c2cccc(-c3csc(NC(=O)[C@H](C)NC(=O)c4ccn(C(C)(C)C)c4)n3)n2)C[C@H](C)O1 [Compound 769] | 
4 | > 0.01 | > 0.1 |  |  | COC[C@H](NC(=O)c1ccn(S(C)(=O)=O)c1)C(=O)Nc1nc(-c2ccc(F)c(OC3CC3)c2)cs1 [Compound 545] | 
5 | > 0.01 | > 0.01 |  |  | CS(=O)(=O)n1ccc(C(=O)NCC(=O)Nc2nc(-c3cccc([C@@H]4CC4(F)F)c3)cs2)c1 [Compound 575] | 
6 | < 0.01 | < 0.01 |  |  | CS(=O)(=O)n1ccc(C(=O)NCC(=O)Nc2nc(-c3cccc(N4CC[C@@H]5OCC[C@H]5C4)n3)cs2)c1 [Compound 766] | 
7 | > 0.01 | > 0.1 |  |  | CC(C)(C)n1ccc(C(=O)NCC(=O)Nc2nc(-c3cccc(C4COC4)c3)cs2)c1 [Compound 464] | 
8 | < 0.01 | < 0.01 |  |  | CS(=O)(=O)n1ccc(C(=O)NCC(=O)Nc2nc(-c3cc(F)c4c(c3)OCO4)cs2)c1 [Compound 616] | 
9 | > 0.1 | > 0.1 |  |  | Cn1cc(N2CCN(c3cccc(-c4csc(NC(=O)CNC(=O)c5ccn(C(C)(C)C)c5)n4)n3)CC2)cn1 [Compound 706] | 
10 | < 0.01 | < 0.01 |  |  | COC[C@H](NC(=O)c1ccn(C(C)(C)C)c1)C(=O)Nc1nc(-c2cc(F)c3ccn(C)c(=O)c3c2)cs1 [Compound 563] | 
11 | < 0.01 | < 0.01 |  |  | CS(=O)(=O)n1ccc(C(=O)NCC(=O)Nc2nc(-c3cccc(N4CC[C@@H]5COC[C@H]5C4)n3)cs2)c1 [Compound 746] | 
12 | > 0.01 | > 0.01 |  |  | CC(C)(C)n1ccc(C(=O)NCC(=O)Nc2nc(-c3cccc(N4CCC5(COC5)C4)n3)cs2)c1 [Compound 620] | 
13 | > 0.01 | > 0.01 |  |  | C[C@@H]1CN(c2cccc(-c3csc(NC(=O)[C@H](C)NC(=O)c4ccn(C5(C#N)CC5)c4)n3)n2)C[C@H](C)O1 [Compound 560] | 
14 | > 0.01 | > 0.01 |  |  | COC[C@H](NC(=O)c1ccn(S(C)(=O)=O)c1)C(=O)Nc1nc(-c2cccc([C@H]3CC3(F)F)c2)cs1 [Compound 599] | 
15 | > 0.01 | > 0.01 |  |  | CC(C)(C)n1ccc(C(=O)NCC(=O)Nc2nc(-c3cccc(N4CCCC5(CCO5)C4)n3)cs2)c1 (stereo not drawn) [Compound 668] | 
16 | > 0.01 | > 0.01 |  |  | C[C@@H]1CO[C@@H]2CN(c3cccc(-c4csc(NC(=O)CNC(=O)c5ccn(C(C)(C)C)c5)n4)n3)C[C@H]12 (racemic) [Compound 649] | 
17 | > 0.01 | > 0.01 |  |  | CC(C)(C)n1ccc(C(=O)NCC(=O)Nc2nc(-c3cccc(N4CCC(C#N)C4)n3)cs2)c1 (stereo not drawn) [Compound 672] | 
18 | > 0.01 | > 0.01 |  |  | CC(C)(C)n1ccc(C(=O)NCC(=O)Nc2nc(-c3cccc(C45CCOCC4C5)c3)cs2)c1 (stereo not drawn) [Compound 744] | 

The remaining lines, values behind:

Row | SMILES | IC50 (BRM; [1]) [µM] | IC50 (BRG-1; [2]) [µM] | IC50 (BRM; [3]) [µM] | IC50 (BRG-1; [4]) [µM] | further results
19 | Cn1cc(-c2cccc(-c3csc(NC(=O)CNC(=O)c4ccn(C(C)(C)C)c4)n3)c2)cn1 [Compound 83, 1-(tert-butyl)-N-(2-((4-(3-(1-methyl-1H-pyrazol-4-yl)phenyl)thiazol-2-yl)amino)-2-oxoethyl)-1H-pyrrole-3-carboxamide] |  |  | > 0.01 | > 0.01 | 
20 | COC[C@H](NC(=O)c1ccn(S(C)(=O)=O)c1)C(=O)Nc1nc(-c2cccc(-c3ccnc(C)n3)c2)cs1 [Compound 357, N-[(1S)-1-(methoxymethyl)-2-[[4-[3-(2-methylpyrimidin-4-yl)phenyl]thiazol-2-yl]amino]-2-oxo-ethyl]-1-methylsulfonyl-pyrrole-3-carboxamide] |  |  | < 0.01 | < 0.01 | 
21 | CS(=O)(=O)n1ccc(C(=O)NCC(=O)Nc2nc(-c3cccc(N4CCCC4)c3)cs2)c1 [Compound 231] |  |  | > 0.01 | > 0.01 | 
22 | CS(=O)(=O)n1ccc(C(=O)NCC(=O)Nc2nc(-c3cccc(N4CC(N5CCOCC5)C4)c3)cs2)c1 [Compound 227] |  |  | > 0.01 | > 0.01 | 
23 | CN1Cc2ccc(-c3csc(NC(=O)CNC(=O)c4ccn(C(C)(C)C)c4)n3)cc2CC1=O [Compound 124, 1-(tert-butyl)-N-(2-((4-(2-methyl-3-oxo-1,2,3,4-tetrahydroisoquinolin-6-yl)thiazol-2-yl)amino)-2-oxoethyl)-1H-pyrrole-3-carboxamide] |  |  | > 0.01 | > 0.1 | 
24 | CC(C)(N)Cn1ccc(-c2cccc(-c3csc(NC(=O)CNC(=O)c4ccn(C(C)(C)C)c4)n3)c2)n1 [Compound 434] | > 0.01 | > 0.01 |  |  | 
25 | COC[C@H](NC(=O)c1ccn(C2(C#N)CC2)n1)C(=O)Nc1nc(-c2cccc(-c3ccn(C)n3)c2)cs1 [Compound 815] |  |  |  |  | IC50 (BRM; read-out: BRM IP50): > 0.1 µM; IC50 (BRG-1; read-out: BRG1 IP50): > 0.1 µM
26 | CN1CCCc2ccc(-c3csc(NC(=O)CNC(=O)c4ccn(S(C)(=O)=O)c4)n3)cc21 [Compound 306] |  |  | > 0.01 | > 0.01 | 
27 | CS(=O)(=O)n1ccc(C(=O)NCC(=O)Nc2nc(-c3cccc(N4CCC[C@@H](O)C4)c3)cs2)c1 [Compound 215] |  |  | > 0.01 | > 0.01 | 
28 | Cc1cn(-c2cccc(-c3csc(NC(=O)CNC(=O)c4ccn(S(C)(=O)=O)c4)n3)c2)cn1 [Compound 93, N-(2-((4-(3-(4-methyl-1H-imidazol-1-yl)phenyl)thiazol-2-yl)amino)-2-oxoethyl)-1-(methylsulfonyl)-1H-pyrrole-3-carboxamide] |  |  | > 0.01 | > 0.01 | 
29 | CS(=O)(=O)n1ccc(C(=O)NCC(=O)Nc2nc(-c3cccc(CCc4ccncc4)c3)cs2)c1 [Compound 151, 1-(methylsulfonyl)-N-(2-oxo-2-((4-(3-(2-(pyridin-4-yl)ethyl)phenyl)thiazol-2-yl)amino)ethyl)-1H-pyrrole-3-carboxamide] |  |  | < 0.01 | < 0.01 | 
30 | Cn1cncc1C(=O)NCC(=O)Nc1nc(-c2cccc(C#N)c2)cs1 [Compound 31, N-(2-((4-(3-cyanophenyl)thiazol-2-yl)amino)-2-oxoethyl)-1-methyl-1H-imidazole-5-carboxamide] |  |  | > 1 | > 1 | 
31 | CS(=O)(=O)n1ccc(C(=O)NCC(=O)Nc2nc(-c3ccn(-c4ccncc4)n3)cs2)c1 [Compound 113, 1-(methylsulfonyl)-N-(2-oxo-2-((4-(1-(pyridin-4-yl)-1H-pyrazol-3-yl)thiazol-2-yl)amino)ethyl)-1H-pyrrole-3-carboxamide] |  |  | > 0.1 | > 0.1 | 
32 | CNC(=O)C(C)(C)n1ccc(-c2cccc(-c3csc(NC(=O)CNC(=O)c4ccn(S(C)(=O)=O)c4)n3)c2)n1 [Compound 414, N-[2-[[4-[3-[1-[1,1-dimethyl-2-(methylamino)-2-oxo-ethyl]pyrazol-3-yl]phenyl]thiazol-2-yl]amino]-2-oxo-ethyl]-1-methylsulfonyl-pyrrole-3-carboxamide] | < 0.01 | < 0.01 |  |  | 
33 | CS(=O)(=O)n1ccc(C(=O)NCC(=O)Nc2nc(-c3cccc(N4CCC(F)(F)C4)c3)cs2)c1 [Compound 225] |  |  | > 0.01 | > 0.01 | 
34 | CN1CC(OCc2cccc(-c3csc(NC(=O)CNC(=O)c4ccn(C(C)(C)C)c4)n3)c2)C1 [Compound 118, 1-(tert-butyl)-N-(2-((4-(3-(((1-methylazetidin-3-yl)oxy)methyl)phenyl)thiazol-2-yl)amino)-2-oxoethyl)-1H-pyrrole-3-carboxamide] |  |  | > 1 | > 1 | 
35 | C[C@@H]1CN(c2cccc(-c3csc(NC(=O)CNC(=O)c4ccn(C(C)(C)C)c4)n3)c2F)C[C@H](C)O1 [Compound 269] |  |  | > 0.01 | > 0.01 | 
36 | COC[C@H](NC(=O)c1cn(C(C)(C)C#N)cn1)C(=O)Nc1nc(-c2cc(C)cc(N3C[C@@H](C)O[C@@H](C)C3)n2)cs1 [Compound 818] |  |  |  |  | IC50 (BRM; read-out: BRM IP50): > 0.01 µM; IC50 (BRG-1; read-out: BRG1 IP50): > 0.01 µM
37 | C[C@H](NC(=O)c1ccn(S(C)(=O)=O)c1)C(=O)Nc1nc(-c2cccc(N3CCC(O)CC3)c2)cs1 [Compound 370] |  |  | > 0.01 | > 0.01 | 
38 | COC[C@H](NC(=O)c1ccn(S(C)(=O)=O)c1)C(=O)Nc1nc(-c2cccc(N3C[C@@H](C)O[C@@H](C)C3)c2)cs1 [Compound 371] |  |  | < 0.01 | < 0.01 | 
39 | COC[C@H](NC(=O)c1ccn(S(C)(=O)=O)c1)C(=O)Nc1nc(-c2cccc(-c3ccnc(C(F)F)c3)c2)cs1 [Compound 359] |  |  | < 0.01 | < 0.01 | 
40 | CC(C)(C)n1ccc(C(=O)NCC(=O)Nc2nc(-c3cccc(-c4ccncn4)c3)cs2)c1 [Compound 84, 1-(tert-butyl)-N-(2-oxo-2-((4-(3-(pyrimidin-4-yl)phenyl)thiazol-2-yl)amino)ethyl)-1H-pyrrole-3-carboxamide] |  |  | < 0.01 | > 0.01 | 
41 | CS(=O)(=O)n1ccc(C(=O)NCC(=O)Nc2nc(-c3cccc([C@@H]4CCCOC4)c3)cs2)c1 [Compound 419, 1-methylsulfonyl-N-[2-oxo-2-[[4-[3-[(3S)-tetrahydropyran-3-yl]phenyl]thiazol-2-yl]amino]ethyl]pyrrole-3-carboxamide] | > 0.01 | > 0.1 |  |  | 
42 | COC[C@H](NC(=O)c1ccn(C(C)(C)C)c1)C(=O)Nc1nc(-c2cccc(-c3ccncn3)c2)cs1 [Compound 66, (S)-1-(tert-butyl)-N-(3-methoxy-1-oxo-1-((4-(3-(pyrimidin-4-yl)phenyl)thiazol-2-yl)amino)propan-2-yl)-1H-pyrrole-3-carboxamide] |  |  | > 0.01 | > 0.01 | 

From patent US20230079819A1, “COMPOUNDS AND USES THEREOF” (Foghorn Therapeutics Inc., priority 2019, published 2023)
